Laboratory results taken from patent US20090023741A1, “ARYL/HETARYLAMIDES AS MODULATORS OF THE EP2 RECEPTOR” (priority 2007, published 2009).

How the values were obtained:
[1] = biological target: T1, EP2 subtype of the human PGE2 receptor (Homo sapiens, UniProt P43116); assay: cAMP antagonism assay (HTRF, PGE2-stimulated cells); type: cell-based; conditions: in presence of PGE2
T1 construct: host or cells: cells in a cell culture plate
Procedure: (§1) The binding of PGE2 to the EP2 subtype of the human PGE2 receptor induces activation of membrane-associated adenylate cyclases and leads to the formation of cAMP. In the presence of the phosphodiesterase inhibitor IBMX, cAMP which has accumulated due to this stimulation and been released by cell lysis is employed in a competitive detection method. In this assay, the cAMP in the lysate competes with cAMP-XL665 for binding of an Eu cryptate-labelled anti-cAMP antibody.
(§2) The two signals are measured in a suitable measuring instrument with a time lag, i.e. after the background fluorescence has declined.
(§3) The substance solutions (0.75 μl) introduced into an assay plate and 30% DMSO are dissolved in 16 μl of a KRSB+IBMX stimulation solution (1× Krebs-Ringer Bicarbonate Buffer; Sigma-Aldrich # K-4002; including 750 μM 3-isobutyl-1-methylxanthine Sigma-Aldrich # I-7018), and then 15 μl thereof are transferred into a media-free cell culture plate which has been washed with KRSB shortly beforehand.
After preincubation at room temperature (RT) for 30 minutes, 5 μl of a 4×PGE2 solution (11 nM) are added, and incubation is carried out in the presence of the agonist at RT for a further 60 min (volume: ˜20 μl) before the reaction is then stopped by adding 5 μl of lysis buffer and incubated at RT for a further 20 min (volume: 25 μl). The cell lysate is then transferred into a measuring plate and measured in accordance with the manufacturer's information (cyclic AMP kit Cisbio International # 62AMPPEC).

[2] = system: cumulus-oocyte complexes (cumulus expansion); assay: Cumulus expansion assay in vitro; type: cell-based, mice; conditions: in competition with PGE2
Procedure: Folliculogenesis is induced in immature female mice (strain: CD1 (ICR) from Charles River) at an age of 14-18 days by a single dose (intraperitoneal) of 10 I.U. of PMSG (Pregnant Mare Serum Gonadotropine; Sigma G-4877, Lot 68H0909). 47-50 hours after the injection, the ovaries are removed and the cumulus-oocyte complexes are removed. The cumulus complex is not yet expanded at this stage.
The cumulus-oocyte complexes are then incubated with prostaglandin E2 (PGE2) (0.3 μM), vehicle control (ethanol) or test substances for 20-24 hours. Medium: alpha-MEM medium with 0.1 mM IBMX, pyruvates (0.23 mM) glutamines (2 mM), pen/strep 100 IU/ml pen. and 100 μg/ml strep.) and HSA (8 mg/ml)). Cumulus expansion is then established through the division into four stages (according to Vanderhyden et al. Dev Biol. 1990 August; 140(2):307-317).

[3] = biological target: T1, EP2 subtype of the human PGE2 receptor; assay: cAMP agonism assay (cellular agonism test); type: cell-based; conditions: without PGE2
Procedure: as §1, §2, §3
After incubation at room temperature (RT; volume: ˜15 μl) for 60 minutes, the reaction is then stopped by adding 5 μl of lysis buffer and incubated at RT for a further 20 min (volume: ˜20 μl). The cell lysate is then transferred into a measuring plate and measured in accordance with the manufacturer's information (cyclic AMP kit Cisbio International # 62AMPPEC).

T1 sequence (P43116 whole entry): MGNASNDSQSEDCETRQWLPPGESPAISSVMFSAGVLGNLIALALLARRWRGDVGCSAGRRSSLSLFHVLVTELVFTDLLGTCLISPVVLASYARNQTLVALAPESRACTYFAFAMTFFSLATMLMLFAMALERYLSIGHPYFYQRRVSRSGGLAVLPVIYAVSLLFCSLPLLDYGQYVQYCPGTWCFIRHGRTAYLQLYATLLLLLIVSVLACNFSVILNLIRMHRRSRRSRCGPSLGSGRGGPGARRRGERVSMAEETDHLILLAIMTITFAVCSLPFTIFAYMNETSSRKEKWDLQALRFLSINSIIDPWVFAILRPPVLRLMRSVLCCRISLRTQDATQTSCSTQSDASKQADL

Work on `Cc1[nH]c2c(F)ccc(C)c2c1CCNC(=O)c1ccc(C(F)(F)F)cc1` [Example 6, N-[2-(7-Fluoro-2,4-dimethyl-1H-indol-3-yl)ethyl]-4-trifluoromethylbenzamide] yielded an IC50 [1] of 1.5 µM.

Molecule `COc1cc(C(=O)NCCc2c(C)[nH]c3c(F)ccc(C)c23)cc(OC)c1OC` [Example 2, N-[2-(7-Fluoro-2,4-dimethyl-1H-indol-3-yl)ethyl]-3,4,5-trimethoxybenzamide] has an IC50 [1] of 6.8 µM.

In the case of `Cc1[nH]c2c(F)ccc(C)c2c1CCNC(=O)c1ccc(-c2ccc(F)cc2)cc1` [Example 29, 4′-Fluorobiphenyl-4-carboxylic acid [2-(7-fluoro-2,4-dimethyl-1H-indol-3-yl)ethyl]amide], the IC50 [1] is reported as 1.2 µM, the inhibition at 10 µM ([2]; Mus musculus, concentration 10 μM) is reported as ~20% and the “effect in the cellular agonism test” value [3] is reported as “no inhibition”.

`CC(C)Oc1ccc2c(=O)c3cc(C(=O)O)ccc3oc2c1` [AH 6809, reference compound] was tested, and the “inhibition of cumulus expansion” value ([2]; concentration 100-200 μM) was ~30%.
